In BindingDB's records for patent US11958871 (Fraunhofer-Gesellschaft Zur Forderung Der Angewandten …, 2024):

How the values were obtained:
[1] = target: T1, Peptidase M28 domain-containing protein (Prevotella nigrescens CC14M, UniProt V8CNC2)
T1 sequence (V8CNC2 whole entry): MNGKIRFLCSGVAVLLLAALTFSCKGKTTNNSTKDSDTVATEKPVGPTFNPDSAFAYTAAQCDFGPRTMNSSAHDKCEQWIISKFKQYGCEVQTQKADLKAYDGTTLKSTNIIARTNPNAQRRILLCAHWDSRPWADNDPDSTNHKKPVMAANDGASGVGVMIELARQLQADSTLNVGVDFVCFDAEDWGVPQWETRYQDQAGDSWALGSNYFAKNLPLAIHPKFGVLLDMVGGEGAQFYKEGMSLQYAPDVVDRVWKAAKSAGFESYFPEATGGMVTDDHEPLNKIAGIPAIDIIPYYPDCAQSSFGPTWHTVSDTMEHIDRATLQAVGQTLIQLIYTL

[2] = target: T2, Glutamine cyclotransferase-related protein (Porphyromonas gingivalis (strain ATCC BAA-308 / W83), UniProt Q7MT37); assay: Inhibition of Glutaminyl Cyclases
T2 sequence (Q7MT37 whole entry): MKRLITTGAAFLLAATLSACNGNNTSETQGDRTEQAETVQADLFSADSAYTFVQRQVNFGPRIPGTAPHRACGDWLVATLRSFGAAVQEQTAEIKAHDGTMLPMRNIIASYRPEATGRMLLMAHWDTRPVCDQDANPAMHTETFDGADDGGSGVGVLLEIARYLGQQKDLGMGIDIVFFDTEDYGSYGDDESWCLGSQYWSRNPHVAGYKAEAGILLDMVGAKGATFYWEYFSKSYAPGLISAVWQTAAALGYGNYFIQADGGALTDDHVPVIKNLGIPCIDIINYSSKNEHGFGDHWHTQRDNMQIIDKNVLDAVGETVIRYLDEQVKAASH
Experimental: For inhibitor testing, the sample composition was the same as described above, except for the addition of the putative inhibitory compound. […] Inhibitory constants were determined using different concentration of H-Gln-AMC varying from Km-2 Km. Final concentration of bacterial QC was in a range between 25 nM-50 nM.

[3] = target: Glutaminyl-peptide cyclotransferase (Homo sapiens, UniProt Q16769)
Peptidase, M28 family = target: T3, Peptidase, M28 family (Tannerella forsythia (strain ATCC 43037 / JCM 10827 / CCUG 21028 A / KCTC 5666 / FDC 338), UniProt G8UMP8)
T3 sequence (G8UMP8 whole entry): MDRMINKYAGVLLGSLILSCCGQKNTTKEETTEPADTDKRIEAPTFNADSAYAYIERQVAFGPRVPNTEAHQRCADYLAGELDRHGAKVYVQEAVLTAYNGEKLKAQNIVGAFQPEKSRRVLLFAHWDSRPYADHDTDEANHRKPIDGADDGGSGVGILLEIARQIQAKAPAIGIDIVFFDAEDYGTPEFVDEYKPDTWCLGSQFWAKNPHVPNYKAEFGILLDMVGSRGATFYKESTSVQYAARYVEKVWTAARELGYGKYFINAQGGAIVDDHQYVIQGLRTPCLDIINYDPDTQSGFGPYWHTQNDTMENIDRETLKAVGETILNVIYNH

Glutaminyl-peptide cyclotransferase, sequence (Q16769 whole entry): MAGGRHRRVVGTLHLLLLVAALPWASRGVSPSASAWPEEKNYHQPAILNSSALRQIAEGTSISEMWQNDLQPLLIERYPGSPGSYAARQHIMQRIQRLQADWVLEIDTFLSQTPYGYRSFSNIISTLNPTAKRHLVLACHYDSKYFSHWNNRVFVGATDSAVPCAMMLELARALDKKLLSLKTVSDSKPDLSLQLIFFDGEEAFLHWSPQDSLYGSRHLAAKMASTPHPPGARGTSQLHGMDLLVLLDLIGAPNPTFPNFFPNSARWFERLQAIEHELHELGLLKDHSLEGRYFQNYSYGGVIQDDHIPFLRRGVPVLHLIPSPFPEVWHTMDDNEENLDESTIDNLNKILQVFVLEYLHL

SMILES	Ki [1] [µM]	Ki [2] [µM]	Ki [3] [µM]	Ki (Peptidase, M28 family) [µM]
c1ccc(CNc2ccc3nc[nH]c3n2)cc1 [US11958871, Example 1]	9.4			
c1ccc(CNc2cnc3[nH]cnc3c2)cc1 [US11958871, Example 2]		0.149	1.28	1.4
Fc1cc(CNc2cnc3[nH]cnc3c2)cc(F)c1F [US11958871, Example 3]		0.157		
Clc1cccc(CNc2cnc3[nH]cnc3c2)c1 [US11958871, Example 5]		0.106	0.769	
COc1cccc(CNc2cnc3[nH]cnc3c2)c1 [US11958871, Example 6]		0.077	0.599	
COc1ccc(CNc2cnc3[nH]cnc3c2)cc1 [US11958871, Example 7]		0.083		
c1nc2cc(NCc3ccsc3)cnc2[nH]1 [US11958871, Example 8]		0.185	1.87	
c1cc(CNc2cnc3[nH]cnc3c2)cc(N2CCCCC2)c1 [US11958871, Example 9]		0.442		
c1ccc(CNc2cnc3[nH]cnc3c2)nc1 [US11958871, Example 10]		0.395		
c1cncc(CNc2cnc3[nH]cnc3c2)c1 [US11958871, Example 11]		0.139		
c1nc2cc(NCc3ccc4c(c3)OCCO4)cnc2[nH]1 [US11958871, Example 12]	0.728	0.044	0.543	0.68
COc1ccc(CNc2cnc3[nH]cnc3c2)cc1OC [US11958871, Example 13]		0.133	0.556	
Clc1ccc(CNc2cnc3[nH]cnc3c2)cc1Cl [US11958871, Example 14]		0.053	0.431	0.358
CCCOc1ccc(CNc2cnc3[nH]cnc3c2)cc1 [US11958871, Example 15]		0.034		
NCCOc1ccc(CNc2cnc3[nH]cnc3c2)cc1 [US11958871, Example 16]		0.03	1.07	0.317
